# Experiments:
# Assay type in all cases: in vivo
# Zymoseptoria tritici = assay: Leaf painting assay in wheat seedling, Zymoseptoria tritici preventive
# Method: Wheat seedlings of the variety Riband (for Zymoseptoria tritici trials) or variety Arina (for Puccinia recondite trials) were grown in the glasshouse until 14d after seeding. At this time, such seedlings usually have a first leaf fully emerged (designated L1), a second leaf fully emerged (L2) and a third leaf (L3) that is partially emerged and in the process of development. Using a permanent pen, two dots were applied on the second leaf such as to generate three segments of roughly equal size: Segment A (at the base), segment B (middle part) and segment C (tip of the leaf). A stock solution of the compound of Formula (I) was produced in water and of benzovindiflupyr in DMSO at a concentration of 10,000 ppm. […] The diluted compound was applied to the middle segment of L2 using a conventional cotton stick; the cotton stick was soaked in the diluted compound and rubbed several times on the adaxial leaf surface between the two marks. One day later, the complete plant was inoculated with a fungal spore suspension using a paint brush. The spore suspension was applied until before run-off.
# For infection with Zymoseptoria tritici (preventive), the test plants were inoculated by spraying a spore suspension on them one day after application (1.5 Mio spores per ml in water supplemented with 0.01% Tween20). After an incubation period of 4 days at 22 °C/21 °C (day/night) and 95% rh, the inoculated test plants were kept at 22 °C/21 °C (day/night) and 70% rh in a greenhouse.
# The three segments of the leaf were evaluated individually.
# [1] = tested on: Blumeria graminis f.sp. tritici; assay: Powdery mildew assay in wheat (haustoria formation)
# several fungal species = assay: Leaf disc or leaf segment tests, summary over several fungal species; settings: foliar; leaf disc and leaf segment tests; read-out: concentration from which fungal growth is reduced
# Method: Leaf disks or leaf segments of various plant species were cut from plants grown in the greenhouse. The cut leaf discs or segments were placed in multiwell plates (24-well format) onto water agar. The leaf disks were sprayed with a test solution before (preventative) or after (curative) inoculation. Compounds to be tested were prepared as water solutions (max. 10 mg/ml) which were diluted to the appropriate concentration with 0.025% Tween20 just before spraying. The inoculated leaf discs or segments were incubated under defined conditions (temperature, relative humidity, light, etc.) according to the respective test system. A single evaluation of disease level was carried out 3-9 days days after inoculation, depending on the pathosystem. Percent disease control relative to the untreated check leaf discs or segments was then calculated.
# Wheat leaf segments cv. Kanzler were placed on agar in multiwell plates (24-well format) and sprayed with the formulated test compound diluted in water. […] The inoculated leaf segments were incubated at 19 °C and 75% rh under a light regime of 12 h light/12 h darkness in a climate cabinet and the activity of a compound was assessed as percent disease control compared to untreated leaf when an appropriate level of disease damage appeared in untreated check leaf segments (7-9 days after application). […]
structure (smiles),measurement,setting,value
CC(=O)NC1C(OCC(OC2OC(CO)C(O)C(O)C2O)C2OC(OC3C(O)C(CO)OC(OC4(CO)OC(C(O)CO)C(O)C4OC4OC(CO)C(O)C(O)C4O)C3O)C(O)C(O)C2OC2OC(C(O)CO)C(O)C(O)C2OC2OCC(OC(N)=O)C(O)C2O)OC(CO)C(O)C1O (centres unmarked) [compound of Formula (I)],% reduction fungal growth,"Zymoseptoria tritici; Experiment 1, 200.00 ppm, base segment, preventive",24%
same,% reduction fungal growth,"Zymoseptoria tritici; Experiment 1, 200.00 ppm, middle segment (treated), preventive",93%
same,% reduction fungal growth,"Zymoseptoria tritici; Experiment 1, 200.00 ppm, tip segment, preventive",99%
same,% reduction fungal growth,"Zymoseptoria tritici; Experiment 3, 400.00 ppm, base segment, preventive",1%
same,% reduction fungal growth,"Zymoseptoria tritici; Experiment 3, 400.00 ppm, middle segment (treated), preventive",96%
same,% reduction fungal growth,"Zymoseptoria tritici; Experiment 3, 400.00 ppm, tip segment, preventive",100%
same,activity against growth of fungus,"Zymoseptoria tritici; leaf painting, preventive",active against growth
same,control on treated and above treated area,Zymoseptoria tritici; middle segment treated,provided control on the treated area (middle segment) as well as the above treated area (tip)
same,minimal effective concentration,"[1]; Blumeria graminis, 48 h, pre-treated wheat, read-out: concentration at which effect on haustoria formation is observed",≥ 25 µM
same,activity at 1 µM,"[1]; Blumeria graminis, 1 μM, 48 h after infecting, read-out: haustoria formation (% relative to control)",106%
same,activity at 25 µM,"[1]; Blumeria graminis, 25 μM, 48 h after infecting, read-out: haustoria formation (% relative to control)",59.1%
same,activity at 100 µM,"[1]; Blumeria graminis, 100 μM, 48 h after infecting, read-out: haustoria formation (% relative to control)",66.4%
same,reduction of haustoria formation,[1]; pre-treated wheat,reduction of haustoria formation
same,minimal effective concentration,several fungal species,≥ 22 µg/mL

# — patent US20260344665A1, “FUNGICIDAL COMPOUND” (priority 2022, published 2026)
